Patent publication US7132258B1, “Nucleic acid encoding vitamin D receptor related polypeptide” (University of Massachusetts, priority 1998, dated 2006)
“Also recorded” adds a separate entry of the source.

Tested on: RAC3 message
Test: Northern blot analysis of RAC3 expression in HL-60 cells
Format: cell-based, human
Protocol: The expression of RAC3 was examined with Northern blot analysis using standard methods. A single message of about 7.5 kb was detected in human HL60 cells as well as in mouse embryonic tissues. […] Thus, a positive feedback regulatory network may operate in which RAC3 binding to RA-RAR complex activates transcription which, in turn, increases transcription of RAC3.
Cells were treated with different concentration of RA (0, 10, 100, 1000 nM) for a period of 12 hours. In the control group, cells were treated with equal volume of solvent (80% EtOH plus 20% DMSO). Total RNAs were isolated using an RNA isolation kit (RNAzol) and separated on a 1% agarose gel with 2.2 M formaldehyde and blotted onto nylon filters. Filters were hybridized with random-primed ^32P-labeled DNA probes specific for RAC3, Tw2, and SRC1 in hybridization buffer (50% formamide, SX SSPE [1×SSPE is 0.18 M NaCl, 10 mM NaPO4, and 1 mM EDTA at pH 7.7], 2× Denhardt solution, 0.1% SDS, 0.1 mg of sheared herring sperm DNA per ml) at 42° C. overnight. […]
The expression patterns of RAC3 in different human tissues and cancer cells were examined and compared with that of SRC-1 and TIF2. […] Total RNA (20 μg) of HL-60 cells treated with indicated concentrations of atRA for 12 hours or with 1 μM tRA plus 10 μM cycloheximide (CHX) were analyzed for RAC3 message by Northem blot analysis. […]

Compound | expression of RAC3 (HL60 cells treated with atRA) | effect on stimulation of RAC3 expression by atRA (HL60 cells, addition of cycloheximide)
CC1=C(/C=C/C(C)=C/C=C/C(C)=C/C(=O)O)C(C)(C)CCC1 [atRA, all-trans retinoic acid] | up-regulated; also recorded: significantly enhances | 
C[C@@H]1C[C@@H]([C@H](O)CC2CC(=O)NC(=O)C2)C(=O)[C@@H](C)C1 [cycloheximide] |  | does not have an effect
